Results reported in PubChem BioAssay AID2060337 (Molecular Pharmacology Branch, DTP, NCI, 2025).

Tested on: 832693-133-R-J1-PDC multi-cell spheroids, viability
Test: Anticancer human tumor 832693-133-R-J1-PDC patient-derived head and neck squamous carcinoma cell line growth inhibition [IpAb]
Conditions: for IC50: curve of first compound; for viability, T/C: stronger effect = lower value
Procedure, shortened: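 Spheroids of 60% malignant cells, 25% HUVEC and 15% MSC were exposed to targeted agents combined with ipatasertib or abemaciclib. Doses started at or near clinical Cmax (10 microM when unknown) and fell in half-log steps.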

[1] = second compound 0.1 µM, first compound 0.0316 µM
[2] = second compound 0.1 µM, first compound 0.1 µM
[3] = second compound 0.1 µM, first compound 0.316 µM
[4] = second compound 0.1 µM, first compound 1 µM
[5] = second compound 0.316 µM, first compound 0.0316 µM
[6] = second compound 0.316 µM, first compound 0.1 µM
[7] = second compound 0.316 µM, first compound 0.316 µM
[8] = second compound 0.316 µM, first compound 1 µM
[9] = second compound 1 µM, first compound 0.0316 µM
[10] = second compound 1 µM, first compound 0.1 µM
[11] = second compound 1 µM, first compound 0.316 µM
[12] = second compound 1 µM, first compound 1 µM
[13] = second compound 3.16 µM, first compound 0.0316 µM
[14] = second compound 3.16 µM, first compound 0.1 µM
[15] = second compound 3.16 µM, first compound 0.316 µM
[16] = second compound 3.16 µM, first compound 1 µM
[17] = second compound 10 µM, first compound 0.0316 µM
[18] = second compound 10 µM, first compound 0.1 µM
[19] = second compound 10 µM, first compound 0.316 µM
[20] = second compound 10 µM, first compound 1 µM
[21] = second compound 0.1 µM, first compound 3.16 µM
[22] = second compound 0.1 µM, first compound 10 µM
[23] = second compound 0.316 µM, first compound 3.16 µM
[24] = second compound 0.316 µM, first compound 10 µM
[25] = second compound 1 µM, first compound 3.16 µM
[26] = second compound 1 µM, first compound 10 µM
[27] = second compound 3.16 µM, first compound 3.16 µM
[28] = second compound 3.16 µM, first compound 10 µM
[29] = second compound 10 µM, first compound 3.16 µM
[30] = second compound 10 µM, first compound 10 µM
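Also: spheroids exposed to the drugs for one week before the viability readout.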
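For viability, T/C in this document: 100% = DMSO vehicle control wells.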

CC(=O)c1c(C)c2cnc(Nc3ccc(N4CCNCC4)cn3)nc2n(C2CCCC2)c1=O + CC(C)NCC(C(=O)N1CCN(c2ncnc3c2C(C)CC3O)CC1)c1ccc(Cl)cc1
IC50 (second compound 0.1 µM): 69 nM
IC50 (second compound 0.316 µM): 11.7 nM
IC50 (second compound 1 µM): 2.65 nM
IC50 (second compound 3.16 µM): 1.68 nM
IC50 (second compound 10 µM): 2.82 nM
viability, T/C (second compound 0.1 µM, first compound 0.000949 µM): 90.5%
viability, T/C (second compound 0.1 µM, first compound 0.003 µM): 75%
viability, T/C (second compound 0.1 µM, first compound 0.00949 µM): 66.7%
viability, T/C (second compound 0.1 µM, first compound 0.03 µM): 53.4%
viability, T/C (second compound 0.1 µM, first compound 0.0949 µM): 47.8%
viability, T/C (second compound 0.1 µM, first compound 0.3 µM): 44.7%
viability, T/C (second compound 0.316 µM, first compound 0.000949 µM): 64.8%
viability, T/C (second compound 0.316 µM, first compound 0.003 µM): 62.6%
viability, T/C (second compound 0.316 µM, first compound 0.00949 µM): 51.2%
viability, T/C (second compound 0.316 µM, first compound 0.03 µM): 41.5%
viability, T/C (second compound 0.316 µM, first compound 0.0949 µM): 31.4%
viability, T/C (second compound 0.316 µM, first compound 0.3 µM): 34.1%
viability, T/C (second compound 1 µM, first compound 0.000949 µM): 56.9%
viability, T/C (second compound 1 µM, first compound 0.003 µM): 49.6%
viability, T/C (second compound 1 µM, first compound 0.00949 µM): 36.6%
viability, T/C (second compound 1 µM, first compound 0.03 µM): 33.3%
viability, T/C (second compound 1 µM, first compound 0.0949 µM): 27.8%
viability, T/C (second compound 1 µM, first compound 0.3 µM): 29.6%
viability, T/C (second compound 3.16 µM, first compound 0.000949 µM): 56.2%
viability, T/C (second compound 3.16 µM, first compound 0.003 µM): 45.1%
viability, T/C (second compound 3.16 µM, first compound 0.00949 µM): 31.6%
viability, T/C (second compound 3.16 µM, first compound 0.03 µM): 34.4%
viability, T/C (second compound 3.16 µM, first compound 0.0949 µM): 23.5%
viability, T/C (second compound 3.16 µM, first compound 0.3 µM): 20.8%
viability, T/C (second compound 10 µM, first compound 0.000949 µM): 61%
viability, T/C (second compound 10 µM, first compound 0.003 µM): 50.5%
viability, T/C (second compound 10 µM, first compound 0.00949 µM): 37.8%
viability, T/C (second compound 10 µM, first compound 0.03 µM): 30.5%
viability, T/C (second compound 10 µM, first compound 0.0949 µM): 26.9%
viability, T/C (second compound 10 µM, first compound 0.3 µM): 21%

COc1c(OCCCN2CCOCC2)ccc2c3n(c(=NC(=O)c4cnc(N)nc4)nc12)CCN3 + CC(C)NCC(C(=O)N1CCN(c2ncnc3c2C(C)CC3O)CC1)c1ccc(Cl)cc1
IC50 (second compound 0.1 µM): 15.4 nM
IC50 (second compound 0.316 µM): 5.27 nM
IC50 (second compound 1 µM): < 3.16 nM
IC50 (second compound 3.16 µM): < 3.16 nM
IC50 (second compound 10 µM): < 3.16 nM
viability, T/C (second compound 0.1 µM, first compound 0.00316 µM): 83.1%
viability, T/C (second compound 0.1 µM, first compound 0.01 µM): 63.4%
viability, T/C [1]: 27.4%
viability, T/C [2]: 7.23%
viability, T/C [3]: 4.92%
viability, T/C [4]: 4.02%
viability, T/C (second compound 0.316 µM, first compound 0.00316 µM): 59.6%
viability, T/C (second compound 0.316 µM, first compound 0.01 µM): 37.7%
viability, T/C [5]: 19.2%
viability, T/C [6]: 7.29%
viability, T/C [7]: 3.93%
viability, T/C [8]: 3.87%
viability, T/C (second compound 1 µM, first compound 0.00316 µM): 43.2%
viability, T/C (second compound 1 µM, first compound 0.01 µM): 20.6%
viability, T/C [9]: 12.7%
viability, T/C [10]: 6.94%
viability, T/C [11]: 4.52%
viability, T/C [12]: 3.27%
viability, T/C (second compound 3.16 µM, first compound 0.00316 µM): 30.5%
viability, T/C (second compound 3.16 µM, first compound 0.01 µM): 18.4%
viability, T/C [13]: 11.2%
viability, T/C [14]: 7.39%
viability, T/C [15]: 5.57%
viability, T/C [16]: 4.86%
viability, T/C (second compound 10 µM, first compound 0.00316 µM): 32.8%
viability, T/C (second compound 10 µM, first compound 0.01 µM): 22.8%
viability, T/C [17]: 14.2%
viability, T/C [18]: 7.94%
viability, T/C [19]: 5.9%
viability, T/C [20]: 5.91%

Cc1nc(NC(=O)N2CCCC2C(N)=O)sc1-c1ccnc(C(C)(C)C(F)(F)F)c1 (stereo not given) + CC(C)NCC(C(=O)N1CCN(c2ncnc3c2C(C)CC3O)CC1)c1ccc(Cl)cc1
IC50 (second compound 0.1 µM): 452 nM
IC50 (second compound 0.316 µM): 260 nM
IC50 (second compound 1 µM): 40.9 nM
IC50 (second compound 3.16 µM): < 31.6 nM
IC50 (second compound 10 µM): 45 nM
viability, T/C [1]: 90.3%
viability, T/C [2]: 78.8%
viability, T/C [3]: 51.3%
viability, T/C [4]: 41%
viability, T/C [21]: 14.1%
viability, T/C [22]: 4.68%
viability, T/C [5]: 77.8%
viability, T/C [6]: 64.2%
viability, T/C [7]: 49%
viability, T/C [8]: 23.8%
viability, T/C [23]: 12.8%
viability, T/C [24]: 3.31%
viability, T/C [9]: 52.2%
viability, T/C [10]: 41.5%
viability, T/C [11]: 26.8%
viability, T/C [12]: 16%
viability, T/C [25]: 9.89%
viability, T/C [26]: 2.93%
viability, T/C [13]: 46%
viability, T/C [14]: 32.8%
viability, T/C [15]: 24.4%
viability, T/C [16]: 16.3%
viability, T/C [27]: 10.7%
viability, T/C [28]: 3.55%
viability, T/C [17]: 55.6%
viability, T/C [18]: 38.4%
viability, T/C [19]: 28.6%
viability, T/C [20]: 19.1%
viability, T/C [29]: 13.3%
viability, T/C [30]: 3.58%

Cn1nccc1Nc1nccc(-c2ccn(C(CO)c3ccc(Cl)c(F)c3)c(=O)c2)n1 (stereo not given) + CC(C)NCC(C(=O)N1CCN(c2ncnc3c2C(C)CC3O)CC1)c1ccc(Cl)cc1
IC50 (second compound 0.1 µM): 383 nM
IC50 (second compound 0.316 µM): 87.4 nM
IC50 (second compound 1 µM): 37.1 nM
IC50 (second compound 3.16 µM): 46.8 nM
IC50 (second compound 10 µM): 326 nM
viability, T/C [1]: 90.9%
viability, T/C [2]: 64.3%
viability, T/C [3]: 55.9%
viability, T/C [4]: 41.2%
viability, T/C [21]: 23.1%
viability, T/C [22]: 21.5%
viability, T/C [5]: 60.1%
viability, T/C [6]: 50%
viability, T/C [7]: 35.2%
viability, T/C [8]: 27.8%
viability, T/C [23]: 19.7%
viability, T/C [24]: 11.2%
viability, T/C [9]: 50.7%
viability, T/C [10]: 43.2%
viability, T/C [11]: 26.6%
viability, T/C [12]: 20.9%
viability, T/C [25]: 14%
viability, T/C [26]: 7.18%
viability, T/C [13]: 51.5%
viability, T/C [14]: 47.3%
viability, T/C [15]: 30.6%
viability, T/C [16]: 19.9%
viability, T/C [27]: 12.6%
viability, T/C [28]: 8.87%
viability, T/C [17]: 56.3%
viability, T/C [18]: 59.6%
viability, T/C [19]: 50.9%
viability, T/C [20]: 28.7%
viability, T/C [29]: 17.9%
viability, T/C [30]: 10.5%
